Results taken from US20250289808A1 (BenoBio Co., Ltd, priority 2024, published 2025).

Tests used:
BRD2 (BD1) = molecular target: T1, BRD2 (BD1) (Homo sapiens, UniProt P25440); test: Binding inhibitory effect on BRD2 protein (AlphaScreen, acetyl-histone H4 peptide); conditions: GST-BRD2 (BD1) 100 nM, biotinylated acetyl-histone H4 peptide 100 nM
T1 construct: a bromodomain of BRD2 (BD1) and BRD3 (BD1), one of the BET protein family

[1] = tested on: retinal degeneration mouse model; test: Electroretinogram (ERG) in blue LED-induced retinal degeneration mouse model; format: in vivo, BALB/c mice; conditions: compound 24 nM, Eylea 25 mg/kg; for Wavelength enhanced multiple compared to a normal saline-treated group, Average value: average of a-wave and b-wave; for Wavelength enhanced multiple compared to a normal saline-treated group, a-wave / Wavelength enhanced multiple compared to a normal saline-treated group, b-wave: single intravitreal injection 1 hour after LED exposure
[2] = tested on: macular degeneration animal model; test: Laser-induced macular degeneration mouse model, FFA and OCT imaging; format: in vivo; conditions: day 11, compound 0.022 μg/eye, Eylea 20 μg/eye
Procedure: After the mouse was subjected to general anesthesia, the eye was applied with anesthetic eye drops to be subjected to additional local anesthesia and additionally induce mydriasis. A macular degeneration animal model was prepared by destroying the Bruch's membrane by inducing laser burn according to macular degeneration induction conditions. […] On day 11 of macular degeneration induction, the mice were subjected to general anesthesia and then injected intraperitoneally with a fluorescent contrast agent. The mouse was placed on the sacrifice table, lubricating gel was dropped into the corresponding eye, and an OCT lens was brought into contact with the mouse's cornea. Image analysis for fluorescein fundus angiography (FFA) and OCT was performed using the Image-J program.

BRD3 (BD1) = molecular target: T2, BRD3 (BD1) (Homo sapiens, UniProt Q15059); test: Binding inhibitory effect on BRD3 protein (AlphaScreen, same manner as 1-1); conditions: same manner as Experimental Example 1-1
T2 construct: a bromodomain of BRD2 (BD1) and BRD3 (BD1), one of the BET protein family; GST
T2 sequence (Q15059 34-140 limits assumed): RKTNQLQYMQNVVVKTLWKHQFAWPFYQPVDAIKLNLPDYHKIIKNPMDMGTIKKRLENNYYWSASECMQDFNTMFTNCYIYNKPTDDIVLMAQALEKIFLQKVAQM

T1 sequence (P25440 74-180 limits assumed): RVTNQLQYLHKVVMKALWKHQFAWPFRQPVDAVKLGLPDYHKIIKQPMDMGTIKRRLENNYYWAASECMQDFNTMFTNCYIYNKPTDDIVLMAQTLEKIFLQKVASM

SMILES | IC50 (BRD2 (BD1)) [µM] | Wavelength enhanced multiple compared to a normal saline-treated group, Average value [1] | Wavelength enhanced multiple compared to a normal saline-treated group, a-wave [1] | Wavelength enhanced multiple compared to a normal saline-treated group, b-wave [1] | CTF value ([2]; FFA imaging) | Lesion size compared to negative control group ([2]; FFA imaging) [%] | Lesion size compared to negative control group ([2]; OCT imaging) [%] | Volume of lesion ([2]; OCT imaging) | IC50 (BRD3 (BD1)) [µM]
CC(C)NCc1ccc(-c2ccccc2-c2cccc3c2CN(C)C3=O)o1 [Compound 8, 2-methyl-4-(2-(5-((isopropylamino)methyl)furan-2-yl)phenyl)isoindoline-1-one] | 16.6 | – | – | – | – | – | – | – | –
CN1Cc2c(cccc2-c2ccccc2-c2ccc(CN3CCOCC3)o2)C1=O [Compound 13, 2-methyl-4-(2-(5-(morpholinomethyl)furan-2-yl)phenyl)isoindoline-1-one] | – | 1.33 | 1.29 | 1.36 | 321,816 Pixels | 34.96 | 57.66 | 1,256,002 μm^3 | –
CN1Cc2c(cccc2-c2ccccc2-c2ccc(CNCc3cnn(C)c3)o2)C1=O [Compound 18, 2-methyl-4-(2-(5-((((1-methyl-1H-pyrazole-4yl)methyl)amino)methyl)furan-2-yl)phenyl)isoindoline-1-one] | – | 2.04 | 2.05 | 2.03 | 389,222 Pixels | 42.28 | 45.15 | 983,477 μm^3 | –
CNC(=O)C1(Cc2ccc(F)cc2)CCN(Cc2ccc(-c3ccccc3-c3cccc4c3CN(C)C4=O)o2)CC1 [Compound 21, 2-methyl-4-(2-(5-(((4-(4-fluorobenzyl)-4′-carboxamidyl)piperidine)methyl)furan-2-yl)phenyl)isoindoline-1-one] | – | 2.30 | 2.17 | 2.42 | 251,239 Pixels | 27.29 | 40.79 | 888,502 μm^3 | –
CNC(=O)C1(C)CN(Cc2ccc(-c3ccccc3-c3cccc4c3CN(C)C4=O)o2)CCC1O (stereo not shown) [Compound 25] | – | 1.27 | 1.52 | 1.01 | 300,650 Pixels | 32.66 | 44.01 | 958,694 μm^3 | –
CNC(=O)C1(Cc2ccccc2)CCCN(Cc2ccc(-c3ccccc3-c3cccc4c3CN(C)C4=O)o2)C1 (stereo not shown) [Compound 27] | 14.1 | – | – | – | – | – | – | – | 2.54
CNC(=O)CC1C(=O)NCCN1C(=O)c1ccc(-c2ccccc2-c2cccc3c2CN(C)C3=O)o1 (stereo not shown) [Compound 35] | 12.3 | – | – | – | – | – | – | – | 1.22
CN1Cc2c(cccc2-c2ccccc2-c2ccc(COCN3CCC(F)(F)CC3)o2)C1=O [Compound 37, 2-methyl-4-(2-(5-((((4,4-difluoropiperidine-1-yl)methoxy)-3-carboxamidyl)methyl)furan-2-yl)phenyl)isoindoline-1-one] | – | 1.38 | 1.45 | 1.31 | 320,028 Pixels | 34.76 | 46.40 | 1,010,752 μm^3 | –
CNC(=O)C1(Cc2ccc(F)cc2)CCN(Cc2oc(-c3ccccc3-c3cccc4c3CN(C)C4=O)cc2C)CC1 [Compound 39, 2-methyl-4-(2-(5-((3-methyl (4-(4-fluorobenzyl)-4′-carboxamidyl)piperidine)methyl)furan-2-yl)phenyl)isoindoline-1-one] | – | 1.36 | 1.21 | 1.51 | 252,108 Pixels | 27.38 | 58.10 | 1,265,636 μm^3 | –
CCC1(C(=O)NC)CCCN(Cc2oc(-c3ccccc3-c3cccc4c3CN(C)C4=O)cc2C)C1 (stereo not shown) [Compound 40] | – | 1.30 | 1.16 | 1.43 | 362,456 Pixels | 39.37 | 54.01 | 1,176,522 μm^3 | –
CNC(=O)CC1C(=O)NCCN1Cc1oc(-c2ccccc2-c2cccc3c2CN(C)C3=O)cc1C (stereo not shown) [Compound 42, 2-methyl-4-(2-(5-(3-methyl(N-methyl-2-(3-oxopiperazine-2yl)acetamidyl)methyl)furan-2-yl)phenyl)isoindoline-1-one] | – | 1.32 | 1.25 | 1.38 | 381,846 Pixels | 41.48 | 52.86 | 1,151,561 μm^3 | –
